One compound from US9072751B2, “Na/K-ATPase ligand” (priority 2006, dated 2015) can be followed below.

In one assay the test system is Sprague-Dawley rats. The assay can be described thus: Blood pressure, left ventricular hemodynamics (Millar catheter) and heart size 4 weeks after MBG infusion. In kind it is in vivo. The method, then:
Male, Sprague-Dawley rats were used for all of the studies. All of the animal experimentation described in the article was conducted in accordance with the National Institutes of Health Guide for the Care and use of Laboratory Animals using protocols approved by the Medical University of Ohio Institutional Animal Use and Care Committee.
Briefly, Sprague-Dawley rats weighing.apprxeq.250 g at the time of surgery were subjected to either sham surgery with no MBG infusion (Sham), sham surgery with placement of a minipump infusing MBG at 10 μg/kg per day (MBG), PNx, and PNx after immunization against MBG (PNx-IM). MBG of extremely high purity (>99%) was isolated from the venom of Bufa marinas by Kennedy et al. In addition to these maneuvers, a group of PNx animals was subjected to adrenalectomy as well (PNx-ADx).
(determined after extraction on a C-18 column using DELPHIA as described previously), aldosterone (determined with ELISA kit 10004377, Cayman Chemical) and cardiac immunohistochemistry (vida infra) were assessed 4 weeks after surgery.
In the current in vivo studies we observed that MBG levels were increased in PNx- and MBG-treated rats compared with sham-operated controls. […] Using the Millar pressure/volume sensor catheter rather than echocardiography in our previous report, we observed that PNx induced decreases in end systolic volume and end diastolic volume, as well as increased ejection fraction compared with sham-operated controls. The end systolic volume and end diastolic volume were greater, and the ejection factor values were lower in PNX-IM as compared with PNx. […] Using pressure volume loops generated during vena cava occlusions, we noted that the end diastolic pressure volume relationship (an inverse measurement of passive compliance) was increased in PNx- and MBG-treated animals compared with controls, whereas […] ha a lower end diastolic pressure volume relationship than PNx.

The test system of a further assay is SYF+ cells. The assay can be described thus: Procollagen expression in SYF+ cells. In kind it is cell-based. The following applies: MBG 10 nM. An excerpt: To examine whether cardiotronic steroids induced collagen synthesis by signaling through the Na/K-ATPase, we performed the following studies. First, we used pharmacological antagonism at several steps in the Na/K-ATPase cascade. Specifically, we used pharmacological antagonism of Src activation with PP2, nonspecific tyrosine kinase inhibition with herbimycin, inhibition of EGFR transactivation with AG1478, and nonspecific antioxidant administration with N-acetyle cysteine. […] Next we performed studies in the SYF and SYF+ cells (details available in the online supplement).
The effects of PP2 (1 μmol/L), herbimycin (1 μmol/L), AG1478 (250 nM), and N-acetyl cysteine (2.5 mmol/L) on MBG (10 nM) stimulation of procollagen expression also were found. The PP2, herbimycin AG1478, and N-acetyl cysteine were administered from 2 hours before the addition of MBG and continued throughout the 24 hours of MBG incubation (total of 26 hours). Each bar represents the mean.+−.SEM of n=8 experiments. b, effects of PP2 (1 μmol/L) and N-acetyle cysteine (2.5 mmol/L) on MBG (10 nM)-stimulated proline incorporation into collagen. Again, the PP2 an N-acetyl cysteine were added 2 hours before exposure to MBG. Each bar represents the mean.+−.SEM of N=5 experiments. c, effects of MBG 10 nM on procollagen content in SYF and SYF+ cells. Representative Western blots are shown above quantitative data. […]

In assay [1] the test system is TGF-β, Smad 2/3, Smad 4, pSmad 2/3. The assay can be described thus: TGF-β, Smad 2/3, Smad 4, pSmad 2/3 expression in fibroblasts (Western blot). In kind it is cell-based, rat. The following applies: 24 hours, 1 and 10 nM. The source says:
To further examine the molecular mechanisms by which cardiotonic steroids induce collagen production in fibroblasts, we examined the effects of MBG on TGF-β expression, as well as the expression of Smad 2/3, Smad 4, and pSmad 2/3. […] Next, we examined whether TGF-β induced collagen production and whether there was synergism between TGF-β and MBG. […] However, it is important to point out that we never completely serum starve the primary cultures, and because serum is always present, some TGF-β is always present.
The effect of 24 hours of MBG (1 and 10 nM) on TGF-β, Smad 2/3, Smad 4, and pSmad 2/3 expression determined by Western blot. b and c, effects of 24 hours of MBG (10 nM), TGFβ(5 ng/mL), and the TGF-β receptor antagonist SB431542 ([…] on procollagen-1 expression (Western blot) and radiolabeled proline incorporation, respectively also were carried out. SB431542 was added 2 hours before exposure to either TGFβ or MBG (total of 26-hour exposure). Each bar represents the mean.+−.SEM of 6 to 8 determinations. *P<0.05, **P<0.01 vs. control.

[2] abbreviates: MBG infusion, 4 weeks, mean ± SEM.

Molecules are shown by their SMILES.

As for `C[C@]12CC[C@H](O)C[C@@]1(O)CC[C@@H]1[C@@H]2CC[C@]2(C)[C@@H](c3ccc(=O)oc3)C[C@H]3O[C@]132` [MBG, marinobufagenin], in the assay with Sprague-Dawley rats (setting [2]), the Ejection fraction was 68 ± 2 %, the End diastolic volume stood at 162 ± 14 µL, the End systolic volume came to 60 ± 6 µL and the “Heart rate (Tall cuff measurements)” value is reported as 367 ± 9 bpm. For the same compound, in the assay on Sprague-Dawley rats (setting [2]), the “Heart weight/body weight ratio” value amounted to 2.8 ± 0.1 g/kg and the “Systolic blood pressure (Tall cuff measurements)” value is 136 ± 4 mm Hg. For the same compound, the EDPVRX1000 with Sprague-Dawley rats (end diastolic pressure volume relationship, MBG infusion, 4 weeks, mean ± SEM) turned out to be 41 ± 6 mm Hg/μL. The compound further returned a τ with Sprague-Dawley rats (time constant of isovolumic relaxation, MBG infusion, 4 weeks, mean ± SEM) of 11.3 ± 0.3 ms. Besides, the “Ventricular myocyte cross-sectional area” value with Sprague-Dawley rats (trichrome images, MBG infusion vs sham) is listed as “marked increases”. The “Upregulation of procollagen expression in SYF+ cells” value with SYF+ cells is given as “very similar way as the primary cardiac fibroblast cultures”. The “TGF-β, Smad 2/3, Smad 4, pSmad 2/3 expression in vitro” value in assay [1] is “did not observe significant changes”.
